Experimental data as given in ChEMBL document CHEMBL1141779, “Sesterterpenoids, terretonins A-D, and an alkaloid, asterrelenin, from Aspergillus terreus” (J Nat Prod, 2005).

Experiments:
[1] = Cytotoxicity against human Bre04 cells; assay type: functional
[2] = Cytotoxicity against human Lu04 cells; assay type: functional
[3] = biological target: Maltase-glucoamylase (Homo sapiens, UniProt O43451); assay: Inhibition of maltase
[4] = Inhibition of alpha-amylase
[5] = biological target: Sucrase-isomaltase, intestinal (Homo sapiens, UniProt P14410); assay: Inhibition of sucrase
[6] = Cytotoxicity against human N04 cells; assay type: functional

Chain of Sucrase-isomaltase, intestinal (P14410 2-1007 limits assumed): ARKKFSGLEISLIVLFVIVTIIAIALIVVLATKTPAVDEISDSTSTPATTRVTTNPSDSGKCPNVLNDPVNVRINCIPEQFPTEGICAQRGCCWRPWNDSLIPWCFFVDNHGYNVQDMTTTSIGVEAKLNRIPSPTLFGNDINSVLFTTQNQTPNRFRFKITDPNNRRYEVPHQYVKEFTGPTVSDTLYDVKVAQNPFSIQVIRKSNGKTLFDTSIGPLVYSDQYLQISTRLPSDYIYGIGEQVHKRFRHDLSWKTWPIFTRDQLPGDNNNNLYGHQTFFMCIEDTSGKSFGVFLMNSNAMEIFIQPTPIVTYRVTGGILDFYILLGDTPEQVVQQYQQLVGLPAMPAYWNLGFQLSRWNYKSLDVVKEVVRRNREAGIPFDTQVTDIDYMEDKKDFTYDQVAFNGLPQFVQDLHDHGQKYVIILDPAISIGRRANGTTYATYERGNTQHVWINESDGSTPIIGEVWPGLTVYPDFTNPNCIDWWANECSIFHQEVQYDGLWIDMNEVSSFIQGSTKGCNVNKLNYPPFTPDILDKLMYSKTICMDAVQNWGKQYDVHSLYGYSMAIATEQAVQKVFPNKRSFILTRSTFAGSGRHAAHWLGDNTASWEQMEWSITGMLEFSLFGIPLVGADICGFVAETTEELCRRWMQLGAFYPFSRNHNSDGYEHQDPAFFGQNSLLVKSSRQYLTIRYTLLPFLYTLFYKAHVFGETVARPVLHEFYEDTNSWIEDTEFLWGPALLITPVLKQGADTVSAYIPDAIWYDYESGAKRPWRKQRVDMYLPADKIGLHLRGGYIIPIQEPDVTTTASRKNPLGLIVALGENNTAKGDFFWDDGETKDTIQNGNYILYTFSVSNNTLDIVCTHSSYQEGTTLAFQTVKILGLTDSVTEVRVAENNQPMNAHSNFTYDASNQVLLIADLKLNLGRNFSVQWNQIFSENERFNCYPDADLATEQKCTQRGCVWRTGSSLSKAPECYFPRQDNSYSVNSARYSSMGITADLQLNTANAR
Chain of Sucrase-isomaltase, intestinal (P14410 1008-1827 limits assumed): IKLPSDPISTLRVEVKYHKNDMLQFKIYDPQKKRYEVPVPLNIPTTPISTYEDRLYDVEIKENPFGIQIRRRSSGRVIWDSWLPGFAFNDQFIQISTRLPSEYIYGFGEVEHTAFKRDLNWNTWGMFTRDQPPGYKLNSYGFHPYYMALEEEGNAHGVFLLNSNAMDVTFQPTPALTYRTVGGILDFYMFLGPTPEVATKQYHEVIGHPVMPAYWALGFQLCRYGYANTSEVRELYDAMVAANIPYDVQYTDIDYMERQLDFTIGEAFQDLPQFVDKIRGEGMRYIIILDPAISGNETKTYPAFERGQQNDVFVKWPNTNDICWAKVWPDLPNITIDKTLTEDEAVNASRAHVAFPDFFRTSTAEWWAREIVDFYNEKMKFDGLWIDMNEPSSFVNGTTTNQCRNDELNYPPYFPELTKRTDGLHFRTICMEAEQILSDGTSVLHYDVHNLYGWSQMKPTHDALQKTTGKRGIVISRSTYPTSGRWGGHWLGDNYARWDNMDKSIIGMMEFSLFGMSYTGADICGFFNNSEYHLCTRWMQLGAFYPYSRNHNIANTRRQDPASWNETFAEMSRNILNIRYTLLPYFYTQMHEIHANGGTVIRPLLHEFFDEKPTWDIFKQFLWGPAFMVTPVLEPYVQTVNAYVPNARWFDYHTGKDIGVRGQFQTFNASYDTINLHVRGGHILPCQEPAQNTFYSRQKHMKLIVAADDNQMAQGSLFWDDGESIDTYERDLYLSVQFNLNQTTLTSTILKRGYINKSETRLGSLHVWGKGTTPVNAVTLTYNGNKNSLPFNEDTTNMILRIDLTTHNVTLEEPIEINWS
Chain of Maltase-glucoamylase (O43451 whole entry): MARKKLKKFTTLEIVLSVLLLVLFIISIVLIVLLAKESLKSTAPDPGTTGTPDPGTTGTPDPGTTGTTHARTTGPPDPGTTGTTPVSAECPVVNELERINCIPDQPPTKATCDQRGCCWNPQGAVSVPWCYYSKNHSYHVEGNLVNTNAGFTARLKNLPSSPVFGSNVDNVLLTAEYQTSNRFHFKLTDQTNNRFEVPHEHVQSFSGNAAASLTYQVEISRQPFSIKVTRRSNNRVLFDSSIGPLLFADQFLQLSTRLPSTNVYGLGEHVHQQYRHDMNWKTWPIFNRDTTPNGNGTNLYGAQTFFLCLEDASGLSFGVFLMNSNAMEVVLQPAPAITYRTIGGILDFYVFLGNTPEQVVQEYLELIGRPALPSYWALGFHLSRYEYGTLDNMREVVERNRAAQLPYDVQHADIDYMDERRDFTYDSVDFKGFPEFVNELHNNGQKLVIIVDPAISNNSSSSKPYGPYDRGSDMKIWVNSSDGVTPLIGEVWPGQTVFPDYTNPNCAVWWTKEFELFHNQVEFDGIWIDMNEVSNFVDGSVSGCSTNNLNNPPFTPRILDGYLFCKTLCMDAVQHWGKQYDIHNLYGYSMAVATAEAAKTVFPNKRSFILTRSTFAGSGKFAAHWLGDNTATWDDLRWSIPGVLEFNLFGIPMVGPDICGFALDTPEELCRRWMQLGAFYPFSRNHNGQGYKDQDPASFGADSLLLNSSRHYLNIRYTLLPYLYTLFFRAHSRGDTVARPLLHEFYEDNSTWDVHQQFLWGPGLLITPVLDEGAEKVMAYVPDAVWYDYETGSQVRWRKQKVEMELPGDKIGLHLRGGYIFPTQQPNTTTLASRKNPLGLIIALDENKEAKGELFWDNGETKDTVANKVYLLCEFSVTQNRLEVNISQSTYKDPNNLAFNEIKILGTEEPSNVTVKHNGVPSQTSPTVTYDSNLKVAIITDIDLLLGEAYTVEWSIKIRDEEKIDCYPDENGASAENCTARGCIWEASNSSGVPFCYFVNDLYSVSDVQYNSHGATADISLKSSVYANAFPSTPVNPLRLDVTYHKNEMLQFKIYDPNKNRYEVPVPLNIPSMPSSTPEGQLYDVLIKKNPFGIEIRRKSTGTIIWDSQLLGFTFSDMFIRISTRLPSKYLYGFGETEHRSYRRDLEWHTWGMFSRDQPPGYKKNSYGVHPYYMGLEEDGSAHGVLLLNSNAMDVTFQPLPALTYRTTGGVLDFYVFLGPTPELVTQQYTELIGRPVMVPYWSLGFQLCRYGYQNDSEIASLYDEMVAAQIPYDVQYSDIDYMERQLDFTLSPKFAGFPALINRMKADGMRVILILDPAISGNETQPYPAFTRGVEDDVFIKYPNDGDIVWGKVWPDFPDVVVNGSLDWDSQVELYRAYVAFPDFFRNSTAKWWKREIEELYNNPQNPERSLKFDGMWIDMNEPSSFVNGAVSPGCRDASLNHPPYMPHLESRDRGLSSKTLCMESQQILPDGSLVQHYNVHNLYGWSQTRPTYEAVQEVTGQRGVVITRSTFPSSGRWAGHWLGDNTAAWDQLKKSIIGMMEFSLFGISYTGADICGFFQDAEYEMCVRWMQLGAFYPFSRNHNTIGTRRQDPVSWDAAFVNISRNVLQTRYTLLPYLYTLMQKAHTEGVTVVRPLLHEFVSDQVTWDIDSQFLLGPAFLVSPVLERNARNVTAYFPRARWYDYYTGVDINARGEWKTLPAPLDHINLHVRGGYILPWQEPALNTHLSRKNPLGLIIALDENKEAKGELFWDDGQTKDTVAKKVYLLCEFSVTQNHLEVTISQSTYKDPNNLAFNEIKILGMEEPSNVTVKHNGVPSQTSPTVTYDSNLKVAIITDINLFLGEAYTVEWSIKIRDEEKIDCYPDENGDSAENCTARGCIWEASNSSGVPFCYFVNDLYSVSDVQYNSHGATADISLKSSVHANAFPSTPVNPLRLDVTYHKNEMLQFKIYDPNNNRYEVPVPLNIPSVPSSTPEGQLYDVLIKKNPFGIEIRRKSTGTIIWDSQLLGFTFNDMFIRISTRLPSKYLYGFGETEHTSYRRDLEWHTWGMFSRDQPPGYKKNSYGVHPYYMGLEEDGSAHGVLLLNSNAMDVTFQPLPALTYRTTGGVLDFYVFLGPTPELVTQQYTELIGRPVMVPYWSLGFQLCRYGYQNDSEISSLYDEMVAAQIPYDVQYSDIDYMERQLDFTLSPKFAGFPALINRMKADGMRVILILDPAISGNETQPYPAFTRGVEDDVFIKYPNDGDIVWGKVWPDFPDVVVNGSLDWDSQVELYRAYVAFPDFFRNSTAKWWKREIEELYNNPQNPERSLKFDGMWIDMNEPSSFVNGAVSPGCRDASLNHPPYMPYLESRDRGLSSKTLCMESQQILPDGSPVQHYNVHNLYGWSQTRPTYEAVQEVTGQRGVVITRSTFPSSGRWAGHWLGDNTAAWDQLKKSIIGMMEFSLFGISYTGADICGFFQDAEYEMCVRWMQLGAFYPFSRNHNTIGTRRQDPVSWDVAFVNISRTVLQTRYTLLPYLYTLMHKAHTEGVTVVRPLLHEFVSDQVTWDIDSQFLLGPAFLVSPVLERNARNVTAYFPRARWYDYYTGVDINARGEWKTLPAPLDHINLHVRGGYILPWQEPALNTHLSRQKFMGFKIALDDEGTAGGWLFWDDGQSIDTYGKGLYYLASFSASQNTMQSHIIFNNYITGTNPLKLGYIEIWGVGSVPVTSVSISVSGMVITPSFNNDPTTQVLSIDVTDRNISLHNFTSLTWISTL

Structure (SMILES)	GI50 [1] [µg/mL]	GI50 [2] [µg/mL]	IC50 [3] [µM]	IC50 [4] [µg/mL]	IC50 [5] [µM]	GI50 [6] [µg/mL]
C=C1C[C@H]2[C@@](C)(C(=O)C(O)=C3C(C)(C)C(=O)CC[C@@]32C)[C@@H]2C(=O)O[C@@](C)(C(=O)OC)C(=O)[C@@]12C [TERRETONIN A]	> 100	> 100	> 212	> 100	> 212	> 100
C=C1C[C@]2(O)[C@@]3(C)CCC(=O)C(C)(C)C3=C(O)C(=O)[C@@]2(C)[C@@H]2C(=O)O[C@@](C)(C(=O)OC)C(=O)[C@@]12C [TERRETONIN]	> 100	> 100	> 205	> 100	> 205	> 100
COc1cc(-c2cc3c(c(=O)o2)C[C@]2(O)[C@@]4(C)C(=O)C=CC(C)(C)[C@]4(O)CC[C@@]2(C)O3)cc2c1OCO2 [TERRITREM A]	> 100	> 100	> 196	> 100	> 196	> 100
